pIC50: −log10 of the molar value.
Key:
[1] = molecular target: T1, wild type AXL (wtAXL) receptor tyrosine kinase (Homo sapiens, UniProt P30530); assay: NIH-3T3-AXL cellular tyrosine kinase assay (inhibition of AXL phosphorylation); assay type: cell-based; settings: AXL phosphorylation in NIH-3T3-AXL (clone 22) cells, serum-depleted, 2 h with compound, immunoprecipitation / anti-phosphotyrosine blot
T1 construct: WtAXL cDNA was cloned into vector pLXSN(ESK) and transfected into Phoenix E packaging cells; expressed in transfected cells; host or cells: NIH3T3 N7 mouse fibroblasts, retrovirally infected (clone 22)
T1 sequence (P30530 26-894): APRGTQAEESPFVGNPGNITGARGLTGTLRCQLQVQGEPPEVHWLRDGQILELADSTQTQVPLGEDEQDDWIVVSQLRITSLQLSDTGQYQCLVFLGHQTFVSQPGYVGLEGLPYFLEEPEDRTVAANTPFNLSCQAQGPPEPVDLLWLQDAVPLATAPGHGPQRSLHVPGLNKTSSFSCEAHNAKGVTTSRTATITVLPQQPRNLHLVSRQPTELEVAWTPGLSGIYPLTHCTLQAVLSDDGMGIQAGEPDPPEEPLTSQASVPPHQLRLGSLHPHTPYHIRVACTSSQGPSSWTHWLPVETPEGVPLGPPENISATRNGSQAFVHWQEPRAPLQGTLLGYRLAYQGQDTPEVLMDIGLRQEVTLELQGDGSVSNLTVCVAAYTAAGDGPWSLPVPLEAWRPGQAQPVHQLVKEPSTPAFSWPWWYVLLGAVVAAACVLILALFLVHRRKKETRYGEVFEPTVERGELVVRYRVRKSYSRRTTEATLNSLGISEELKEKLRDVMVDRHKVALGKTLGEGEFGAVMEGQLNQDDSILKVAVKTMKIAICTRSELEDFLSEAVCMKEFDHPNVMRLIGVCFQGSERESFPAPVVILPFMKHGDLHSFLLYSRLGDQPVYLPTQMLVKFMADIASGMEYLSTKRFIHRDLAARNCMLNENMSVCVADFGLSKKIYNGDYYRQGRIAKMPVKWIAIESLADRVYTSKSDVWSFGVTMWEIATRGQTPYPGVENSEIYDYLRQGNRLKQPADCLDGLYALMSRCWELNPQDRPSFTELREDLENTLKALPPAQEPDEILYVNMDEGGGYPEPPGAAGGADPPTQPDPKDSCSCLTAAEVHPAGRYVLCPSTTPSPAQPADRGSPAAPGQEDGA
Experimental: 3) Inhibitory Activity of Compounds on Axl Phosphorylation in NIH-3T3-AXL Cellular Tyrosine Kinase Assay
The viral supernatant was collected and used to infect target cells NIH3T3 N7. Monoclonal NIH3T3-AXL cell lines stably expressing wtAXL were generated by selecting retrovirally infected cells in medium containing puromycin (2 μg/ml) and subsequent clonal separation.
NIH-3T3-AXL Cellular Kinase Assay
Serial dilutions of compounds were added, and the cells were further incubated or 2 h. […] The clarified cell lysate (10 min at 13000 rpm at 4° C.) were used for immunoprecipitation. Equal amounts of protein were mixed with 2 μg anti-AXL polyclonal antibody (homemade) and 20 μl Protein A sepharose beads, and rotated for 6 hr at 4° C. After immunoprecipitation, the beads were washed three times with 1×HNTG (50 mM HEPES (pH 7.5), 150 mM NaCl, 10% Glycerol, 0.2% Triton X-100). The final pellet was suspended in 20 μl 2× Laemmli buffer, and boiled for 5 min at 100° C. […] The membrane was then incubated with anti-phosphotyrosine antibody (4G10) overnight at 4° C. followed by washing with 1×TBST buffer three times. After incubating membrane with HRP-conjugated anti-mouse secondary antibody for 1 hour at room temperature followed by washing with 1×TBST buffer three times, the proteins were visualized by ECL.

Structure (SMILES) | pIC50 [1] | melting point [°C]
COc1cc2nccc(Oc3ccc(NS(=O)(=O)c4ccc(Br)c(Cl)c4)c(F)c3)c2cc1OC [Example A60, 4-Bromo-3-chloro-N-[4-(6,7-dimethoxy-quinolin-4-yloxy)-2-fluoro-phenyl]-benzenesulfonamide] | 6.10 | 231 to 232
COc1cc(S(=O)(=O)Nc2ccc(Oc3ccnc4cc(OC)c(OC)cc34)cc2F)ccc1F [Example A61, N-[4-(6,7-Dimethoxy-quinolin-4-yloxy)-2-fluoro-phenyl]-4-fluoro-3-methoxy-benzenesulfonamide] | 6.15 | 214 to 216
CCOc1ccc(S(=O)(=O)Nc2ccc(Oc3ccnc4cc(OC)c(OC)cc34)cc2F)cc1C [Example A62, N-[4-(6,7-Dimethoxy-quinolin-4-yloxy)-2-fluoro-phenyl]-4-ethoxy-3-methyl-benzenesulfonamide] | 6.33 | 158 to 160
COc1cc2nccc(Oc3ccc(NS(=O)(=O)c4ccc(OC)c5ccccc45)c(F)c3)c2cc1OC [Example A63, 4-Methoxy-naphthalene-1-sulfonic acid [4-(6,7-dimethoxy-quinolin-4-yloxy)-2-fluoro-phenyl]-amide] | < 6.00 | 226 to 227
COc1cc2nccc(Oc3ccc(NS(=O)(=O)c4cc(C)c(C)cc4OC)c(F)c3)c2cc1OC [Example A64, N-[4-(6,7-Dimethoxy-quinolin-4-yloxy)-2-fluoro-phenyl]-2-methoxy-4,5-dimethyl-benzenesulfonamide] | < 6.00 | 238 to 240
COc1cc2nccc(Oc3ccc(NS(=O)(=O)c4cc(C)ccc4NC(C)=O)cc3)c2cc1OC [Example A65, N-{2-[4-(6,7-Dimethoxy-quinolin-4-yloxy)-phenylsulfamoyl]-4-methyl-phenyl}-acetamide] | < 5.00 | 134 to 136
COc1cc2nccc(Oc3ccc(NS(=O)(=O)c4cc(C)c(NC(C)=O)c(C)c4)cc3)c2cc1OC [Example A66, N-{4-[4-(6,7-Dimethoxy-quinolin-4-yloxy)-phenylsulfamoyl]-2,6-dimethyl-phenyl}-acetamide] | < 5.00 | 145 to 147
COc1ccc(S(=O)(=O)Nc2ccc(Oc3ccnc4cc(OC)c(OC)cc34)cc2)cc1Cl [Example A67, 3-Chloro-N-[4-(6,7-dimethoxy-quinolin-4-yloxy)-phenyl]-4-methoxy-benzenesulfonamide] | < 5.00 | 226 to 227
COc1cc2nccc(Oc3ccc(NS(=O)(=O)c4cc(Cl)ccc4OC)cc3)c2cc1OC [Example A68, 5-Chloro-N-[4-(6,7-dimethoxy-quinolin-4-yloxy)-phenyl]-2-methoxy-benzenesulfonamide] | < 5.00 | 255 to 257
COc1cc2nccc(Oc3ccc(NS(=O)(=O)c4cc(Cl)c(C)cc4OC)cc3)c2cc1OC [Example A69, 5-Chloro-N-[4-(6,7-dimethoxy-quinolin-4-yloxy)-phenyl]-2-methoxy-4-methyl-benzenesulfonamide] | < 5.00 | 236 to 238
COc1cc2nccc(Oc3ccc(NS(=O)(=O)c4ccc(OC)c(C(C)(C)C)c4)cc3)c2cc1OC [Example A70, 3-tert-Butyl-N-[4-(6,7-dimethoxy-quinolin-4-yloxy)-phenyl]-4-methoxy-benzenesulfonamide] | < 5.00 | 229 to 231
CCCCS(=O)(=O)Nc1ccc(Oc2ccnc3cc(OC)c(OC)cc23)cc1F [Example A71, Butane-1-sulfonic acid [4-(6,7-dimethoxy-quinolin-4-yloxy)-2-fluoro-phenyl]-amide] | < 5.52 | 164 to 166
COc1cc2nccc(Oc3ccc(NS(=O)(=O)CC(C)C)c(F)c3)c2cc1OC [Example A72, 2-Methyl-propane-1-sulfonic acid [4-(6,7-dimethoxy-quinolin-4-yloxy)-2-fluoro-phenyl]-amide] | 6.24 | 175 to 176
COc1cc2nccc(Oc3ccc(NS(=O)(=O)Cc4ccccc4)c(F)c3)c2cc1OC [Example A73, N-[4-(6,7-Dimethoxy-quinolin-4-yloxy)-2-fluoro-phenyl]-C-phenyl-methanesulfonamide] | < 5.52 | 204 to 205
COc1ccc(S(=O)(=O)Nc2ccc(Oc3ccnc4cc(OC)c(OC)cc34)cc2)cc1Br [Example A74, 3-Bromo-N-[4-(6,7-dimethoxy-quinolin-4-yloxy)-phenyl]-4-methoxy-benzenesulfonamide] | < 6.00 | 211 to 212
COc1cc2nccc(Oc3ccc(NS(=O)(=O)c4cccc(-c5ccccc5)c4)cc3C)c2cc1OC [Example A75, Biphenyl-3-sulfonic acid [4-(6,7-dimethoxy-quinolin-4-yloxy)-3-methyl-phenyl]-amide] | < 5.52 | 178 to 180
COc1cc2nccc(Oc3ccc(NS(=O)(=O)c4cccc(Oc5ccccc5)c4)cc3C)c2cc1OC [Example A76, N-[4-(6,7-Dimethoxy-quinolin-4-yloxy)-3-methyl-phenyl]-3-phenoxy-benzenesulfonamide] | < 5.00 | 115 to 117
COc1cc2nccc(Oc3ccc(NS(=O)(=O)c4cccc5ccccc45)cc3C)c2cc1OC [Example A77, Naphthalene-1-sulfonic acid [4-(6,7-dimethoxy-quinolin-4-yloxy)-3-methyl-phenyl]-amide] | < 5.00 | 118 to 120
COc1cc2nccc(Oc3ccc(NS(=O)(=O)c4cccc5cnccc45)cc3)c2cc1OC [Example A78, Isoquinoline-5-sulfonic acid [4-(6,7-dimethoxy-quinolin-4-yloxy)-phenyl]-amide] | < 5.52 | 229 to 231
COc1cc2nccc(Oc3ccc(NS(=O)(=O)c4cc(Cl)cc(Cl)c4O)cc3C)c2cc1OC [Example A79, 3,5-Dichloro-N-[4-(6,7-dimethoxy-quinolin-4-yloxy)-3-methyl-phenyl]-2-hydroxy-benzenesulfonamide] | 6.32 | 113 to 117
COc1cc2nccc(Oc3ccc(NS(=O)(=O)c4cnc(C)[nH]4)cc3)c2cc1OC [Example A80, 2-Methyl-3H-imidazole-4-sulfonic acid [4-(6,7-dimethoxy-quinolin-4-yloxy)-phenyl]-amide] | < 5.00 | 268 to 269
COc1cc2nccc(Oc3ccc(NS(=O)(=O)c4ccc(-c5ccccc5)cc4)cc3)c2cc1OC [Example A81, Biphenyl-4-sulfonic acid [4-(6,7-dimethoxy-quinolin-4-yloxy)-phenyl]-amide] | < 5.00 | 191 to 194
COc1cc2nccc(Oc3ccc(NS(=O)(=O)c4cccc(-c5ncccn5)c4)cc3)c2cc1OC [Example A82, N-[4-(6,7-Dimethoxy-quinolin-4-yloxy)-phenyl]-3-pyrimidin-2-yl-benzenesulfonamide] | < 6.00 | 194 to 195
COc1cc2nccc(Oc3ccc(NS(=O)(=O)c4cc5ccccc5s4)cc3)c2cc1OC [Example A83, Benzo[b]thiophene-2-sulfonic acid [4-(6,7-dimethoxy-quinolin-4-yloxy)-phenyl]-amide] | < 5.52 | 222 to 225
COc1cc2nccc(Oc3ccc(NS(=O)(=O)c4csc5ccccc45)cc3)c2cc1OC [Example A84, Benzo[b]thiophene-3-sulfonic acid [4-(6,7-dimethoxy-quinolin-4-yloxy)-phenyl]-amide] | < 5.52 | 267 to 270
